Results taken from the supplement of paper PMC8633005.

Legend:
Assay in all cases: drug sensitivity score (DSS) (DSS (unitless, 0-50 scale)); higher = more sensitive (stronger viability inhibition); extreme values may be limits of the assay
Conditions in all cases: 72 h; culture: 2D
SK-MEL-2 = test system: SK-MEL-2
How it was run: (§1)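 A 527-compound oncology library was screened in 384-well plates against melanoma cell lines and patient-derived melanoma cultures grown in 2D, the cultures at 1000–1500 cells per well. Each compound, in DMSO or water, was applied at five concentrations over a 10,000-fold range and incubated for 72 h at 37 °C before CellTiter-Glo luminescence readout of viability. A drug sensitivity score, a modified area-under-curve measure, was calculated from curves fitted in the in-house Breeze software.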

FM-MEL-3 = test system: FM-MEL-3
How it was run: as §1

WM165 = test system: WM165
How it was run: as §1

FM-MEL-6 = test system: FM-MEL-6
How it was run: as §1

SK-MEL-28 = test system: SK-MEL-28
How it was run: as §1

FM-MEL-2 = test system: FM-MEL-2
How it was run: as §1

WM852 = test system: WM852
How it was run: as §1

Bowes = test system: Bowes
How it was run: as §1

Row | SMILES | drug sensitivity score (SK-MEL-2) | drug sensitivity score (FM-MEL-3) | drug sensitivity score (WM165) | drug sensitivity score (FM-MEL-6) | drug sensitivity score (SK-MEL-28) | drug sensitivity score (FM-MEL-2) | drug sensitivity score (WM852) | drug sensitivity score (Bowes)
1 | CNC(=O)CN1CCC(Oc2cc3c(Nc4cccc(Cl)c4F)ncnc3cc2OC)CC1 [Sapitinib] | 0 | 0 | 0 | 0 | 0 | 0 | 0 | 0
2 | CN1CCN(CCOc2cc(OC3CCOCC3)c3c(Nc4c(Cl)ccc5c4OCO5)ncnc3c2)CC1 [Saracatinib] | 0 | 0.8 | 2.8 | 0.9 | 4 | 2.3 | 1.8 | 0.3
3 | CC1=C2C[C@H]3[C@@H](CC[C@@H]4C[C@H](NS(C)(=O)=O)CC[C@@]43C)[C@@H]2CC[C@@]2(C1)O[C@@H]1C[C@H](C)CN[C@H]1[C@H]2C [Saridegib] | 0 | 0 | 0.5 | 0 | 0 | 0 | 0 | 0
4 | CC[C@H](CO)Nc1nc(NCc2ccccc2)c2ncn(C(C)C)c2n1 [Seliciclib] | 0 | 0 | 1.7 | 0 | 0 | 0.8 | 0 | 2.6
5 | O=C(/C=C\n1cnc(-c2cc(C(F)(F)F)cc(C(F)(F)F)c2)n1)NNc1cnccn1 [Selinexor] | 13.3 | 11.5 | 18.7 | 8.4 | 9.2 | 9.6 | 8.2 | 12.4
6 | Cc1cc(F)c(C(=O)Nc2cccc(-c3nncn3C(C)C)n2)cc1-n1cnc(C2CC2)c1 [Selonsertib] | 0 | 0 | 0 | 0 | 0 | 0 | 0 | 0
7 | CN1CCN(C(=O)c2ccc3cc(CCNc4ncnc5ccc(C#N)cc45)ccc3c2)CC1 [Senexin B] | 0 | 1.2 | 0 | 0.1 | 0 | 1 | 0.9 | 0
8 | COCC[n+]1c2c(n(Cc3cnccn3)c1C)C(=O)c1ccccc1C2=O [Sepantronium bromide] | 36.2 | 41 | 43.2 | 22.3 | 34.4 | 21.9 | 35.2 | 34.6
9 | Nc1nc2cc(-c3ccc4ncc(C(=O)N5CCOCC5)n4c3)ccc2o1 [Serabelisib] | 0 | 0.3 | 0.1 | 0 | 0 | 0.5 | 0 | 0
10 | O=C(O)c1ccc2c(c1)nc(Nc1cccc(Cl)c1)c1ccncc12 [Silmitasertib] | 2.7 | 9.2 | 7.3 | 3.4 | 2.3 | 3.2 | 2.4 | 3.3
11 | CCC(C)(C)C(=O)O[C@H]1C[C@@H](C)C=C2C=C[C@H](C)[C@H](CC[C@@H]3C[C@@H](O)CC(=O)O3)[C@H]21 [Simvastatin] | 0.1 | 1 | 4.5 | 0.3 | 0 | 0 | 1 | 2.8
12 | CO[C@H]1C[C@@H]2CC[C@@H](C)[C@@](O)(O2)C(=O)C(=O)N2CCCC[C@H]2C(=O)O[C@H]([C@H](C)C[C@@H]2CC[C@@H](O)[C@H](OC)C2)CC(=O)[C@H](C)/C=C(\C)[C@@H](O)[C@@H](OC)C(=O)[C@H](C)C[C@H](C)/C=C/C=C/C=C/1C [Sirolimus] | 0 | 0.2 | 4.5 | 1.2 | 0.9 | 0.2 | 0 | 0
13 | COCCNCc1ccc(-c2cc3nccc(Oc4ccc(NC(=O)C5(C(=O)Nc6ccc(F)cc6)CC5)cc4F)c3s2)nc1 [Sitravatinib] | 0 | 2.6 | 2.1 | 2.4 | 2.3 | 2 | 1.9 | 0.6
14 | Cc1c(C(=O)Nc2ccc(N3C[C@@H](C)O[C@@H](C)C3)nc2)cccc1-c1ccc(OC(F)(F)F)cc1 [Sonidegib] | 0 | 4.1 | 0.2 | 0.1 | 0 | 1.5 | 2.5 | 4.1
15 | C=CCN(/C=C1/C(=O)O[C@H](COC)[C@@]2(C)C1=C(O)C(=O)C1=C2[C@H](OC(C)=O)C[C@]2(C)C(=O)CC[C@@H]12)CC=C [Sonolisib] | 0 | 0 | 0 | 0 | 0 | 0 | 0 | 0
16 | CNC(=O)c1cc(Oc2ccc(NC(=O)Nc3ccc(Cl)c(C(F)(F)F)c3)cc2)ccn1 [Sorafenib] | 0 | 1.4 | 0 | 0 | 0 | 1 | 0 | 0
17 | CN1CCN(c2nc(C3=C(c4c[nH]c5ccccc45)C(=O)NC3=O)c3ccccc3n2)CC1 [Sotrastaurin] | 0 | 0.3 | 0 | 3.7 | 0 | 3.2 | 0 | 0
18 | C=CC(=O)Nc1cccc(Nc2nc(Nc3ccc(OCCOC)cc3)ncc2F)c1 [Spebrutinib] | 0 | 1 | 1.1 | 1 | 0.7 | 0.9 | 0.9 | 2.1
19 | CC(C)n1cnc2c(NCCc3ccc(O)cc3)nc(-c3csc4ccccc34)nc21 [StemRegenin 1] | 0 | 3.4 | 2.5 | 3.6 | 0 | 1.5 | 1.3 | 1.1
20 | CCN(CC)CCNC(=O)c1c(C)[nH]c(/C=C2\C(=O)Nc3ccc(F)cc32)c1C [Sunitinib] | 0 | 0 | 0.8 | 0 | 0 | 0 | 0 | 0

Row | SMILES | drug sensitivity score (SK-MEL-2) | drug sensitivity score (FM-MEL-3) | drug sensitivity score (WM165) | drug sensitivity score (FM-MEL-6) | drug sensitivity score (SK-MEL-28) | drug sensitivity score (FM-MEL-2) | drug sensitivity score (WM852) | drug sensitivity score (Bowes)
21 | CC(C)(O)CC(=O)NCCn1ccc2ncnc(Nc3ccc(Oc4cccc(C(F)(F)F)c4)c(Cl)c3)c21 [TAK-285] | 0 | 0 | 0 | 0 | 0 | 0 | 0 | 1.4
22 | CCS(=O)(=O)c1cccc(-c2cc(C(=O)NC3CCN(C)CC3)c(C)c3[nH]c4ncc(C)cc4c23)c1 [TAK-901] | 2.4 | 1.9 | 9.4 | 1.9 | 4.1 | 0.9 | 4 | 7.3
23 | Cc1cccc(-c2[nH]c(CNc3ccccc3F)nc2-c2ccc3ncnn3c2)n1 [TEW-7197] | 0 | 0 | 0 | 0 | 0 | 0.7 | 0 | 0
24 | Nc1nc(N)c2nc(-c3cccc(O)c3)c(-c3cccc(O)c3)nc2n1 [TG100-115] | 0 | 0 | 0 | 1 | 0 | 1.8 | 0 | 2.9
25 | CC(C)Oc1ccc(-c2nn([C@@H](C)c3oc4ccc(F)cc4c(=O)c3-c3cccc(F)c3)c3ncnc(N)c23)cc1F [TGR-1202] | 0 | 0 | 0 | 0 | 0 | 0.9 | 1 | 0.9
26 | Cc1cc(C(C)Nc2ccccc2)c2nc(N3CCOCC3)cc(=O)n2c1 (stereo not given) [TGX-221] | 0 | 1.1 | 0.1 | 0.9 | 3.3 | 2.2 | 1.2 | 0.6
27 | Nc1nc(NC2CC2)cc(-c2cccc(Cl)c2Cl)n1 [TH588] | 0 | 2.2 | 0.9 | 0 | 0 | 0 | 4.3 | 0
28 | Clc1ccccc1C(c1ccccc1)(c1ccccc1)n1cccn1 [TRAM-34] | 0 | 0 | 0 | 0 | 0 | 0 | 0 | 0
29 | CC(=O)Nc1ccc(C(=O)Nc2ccccc2N)cc1 [Tacedinaline] | 0 | 2.7 | 0 | 1.7 | 0 | 1.6 | 1.5 | 0
30 | C=CC[C@@H]1/C=C(\C)C[C@H](C)C[C@H](OC)[C@H]2O[C@@](O)(C(=O)C(=O)N3CCCC[C@H]3C(=O)O[C@H](/C(C)=C/[C@@H]3CC[C@@H](O)[C@H](OC)C3)[C@H](C)[C@@H](O)CC1=O)[C@H](C)C[C@@H]2OC [Tacrolimus] | 0 | 1.3 | 0 | 0.1 | 0 | 1.9 | 0.1 | 0.6
31 | CN(C(=O)c1ccc(F)cc1C(F)(F)F)C1CCN(c2nnc(-c3ccnn3C)c3ccccc23)CC1 [Taladegib] | 0 | 0 | 0 | 0 | 0 | 0.4 | 0 | 0
32 | Cn1ncnc1[C@H]1c2n[nH]c(=O)c3cc(F)cc(c23)N[C@@H]1c1ccc(F)cc1 [Talazoparib] | 0 | 2.3 | 11.7 | 2.3 | 0.1 | 0.4 | 0 | 0
33 | C[C@@H]1CN(Cc2ccc(F)cc2)[C@@H](C)CN1C(=O)c1cc2c(C(=O)C(=O)N(C)C)cn(C)c2cc1Cl [Talmapimod] | 0 | 0 | 0 | 0 | 0 | 0 | 0 | 0
34 | COc1cc(Nc2ncc(F)c(Nc3ccc4c(n3)NC(=O)C(C)(C)O4)n2)cc(OC)c1OC [Tamatinib] | 0 | 2.7 | 0.9 | 0 | 0 | 5.5 | 0 | 1.3
35 | CC/C(=C(\c1ccccc1)c1ccc(OCCN(C)C)cc1)c1ccccc1 [Tamoxifen] | 0 | 5.6 | 3.8 | 4.4 | 2.4 | 3.7 | 2.3 | 0
36 | COc1cc2c(N3CCN(C(=O)Nc4ccc(OC(C)C)cc4)CC3)ncnc2cc1OCCCN1CCCCC1 [Tandutinib] | 0 | 0 | 0 | 0 | 0 | 0 | 0 | 0
37 | O[C@H]1CC[C@H](Nc2ncc3nc(Nc4c(F)cc(F)cc4F)n([C@H]4CCOC4)c3n2)CC1 [Tanzisertib] | 0 | 0.1 | 0.1 | 0 | 0.8 | 0 | 0 | 0
38 | C[C@@H](C(=O)O)c1ccc(-c2ccccc2)c(F)c1 [Tarenflurbil] | 0 | 0 | 0 | 0 | 0 | 0 | 0 | 0
39 | Cc1nc(-c2cn3c(n2)-c2ccc(-c4cnn(C(C)(C)C(N)=O)c4)cc2OCC3)n(C(C)C)n1 [Taselisib] | 0.2 | 4.7 | 4.2 | 6.6 | 5.6 | 7.4 | 3.5 | 2.8
40 | COc1cccc2c1c(O)c(C(=O)N(C)c1ccc(C(F)(F)F)cc1)c(=O)n2C [Tasquinimod] | 0 | 0.2 | 0 | 0.4 | 0 | 0.9 | 0 | 0
